The values that follow come from article PMC4538536, “In Silico-Based High-Throughput Screen for Discovery of Novel Combinations for Tuberculosis Treatment” (Antimicrobial Agents and Chemotherapy, 2015).

Data set [1] deals with M. tuberculosis H37Rv. Briefly: In vitro bactericidal-effect analysis (CFU enumeration of checkerboard wells). In kind it is cell-based, Mycobacterium tuberculosis. The note with it: single drug at its MIC (FIC of 1); positive = reduction in CFU. The protocol: For determining the extent of the bactericidal effect, sample wells which remained blue in the resazurin microtiter assay (REMA) and whose ΣFICs were within the synergistic-to-additive range (<0.7 for doublets and <1.5 for triplets) were plated on Middlebrook 7H10 agar medium and incubated at 37°C for 21 to 28 days, following which bacterial colonies were enumerated to obtain the net reduction in CFU in comparison to the counts for the untreated controls at the start of drug testing, as well as to that achieved when M. tuberculosis was exposed to each drug alone.

Data set [2] deals with M. tuberculosis H37Rv. Briefly: MIC determination, resazurin-based microplate assay. In kind it is cell-based, Mycobacterium tuberculosis. The note with it: single drug. (In general: Resazurin is reduced to fluorescent resorufin, in cell work by metabolically active cells.)
Data set [3] is described as follows: In vivo pharmacokinetics in infected mice (plasma, LC-MS/MS). Details: species or system BALB/c mice. The note with it: BALB/c, mouse, plasma, po, steady state, infected mice. The protocol: The drugs were formulated in 0.5% hydroxypropyl methyl cellulose (HPMC)–0.1% Tween 80 suspensions as 3- or 4-drug combinations. Formulations were prepared by weighing and adding each compound to the bottle, according to the design. Formulation vehicle was added, and the suspension was stirred overnight. Only uniform suspensions were used, while those that precipitated were abandoned. Formulations were prepared every week, and compound stability was estimated at the end of the week. Pharmacokinetics (PK) analysis was performed on infected mice on the 20th day of dosing. Blood samples were collected from each mouse at 0.5, 2, 4, 6, and 24 h after compound administration. Blood samples of about 30 μl were collected from mice in all groups by serial sampling via the saphenous vein into Microvette CB300 tubes (Starstedt, Germany) coated with EDTA, and plasma (10 μl) was separated following centrifugation. Plasma samples were stored at –20°C until analysis using liquid chromatography-tandem mass spectrometry (LC-MS/MS).
A 1-mg/ml stock solution of each compound was prepared in dimethyl sulfoxide (DMSO) for all of the analytes except PZA and LZD, for which the stock solution was 10 mg/ml in DMSO, and RIF, for which the stock solution was prepared in 50% acetonitrile in water. Three different sets of calibration standard (CS) combinations were prepared by 2-fold dilution of the stock solutions. CS set 1 contained analytes CLO, BDQ, PA824, PZA, and SQ109, CS set 2 contained analytes BTZ043, MXF, THI, EMB, and PZA, and CS set 3 contained LZD, INH, RIF, and PZA. A 16-point calibration curve was utilized for all analytes, and the standard curves ranged from 0.0005 to 20 μg/ml except for PZA and LZD, for which the standard curve range was 0.006 to 200 μg/ml. Plasma samples were precipitated by adding chilled acetonitrile (1:10, vol/vol) containing carbamazepine as an internal standard (10 ng/ml). Samples were vortexed and then centrifuged at 4,000 rpm for 30 min at 10°C. The resulting supernatant was mixed with the mobile phase (50% acetonitrile in water with 0.1% formic acid). Five microliters of the sample was injected on to a liquid chromatographic system (Acquity ultraperformance liquid chromatography [UPLC] system, Waters, Milford, MA) coupled to a triple-quadrupole mass spectrometer (Xevo TQ-S; Waters, Milford, MA). Samples were separated on an LC column (ACE 3 C18, 50 by 4.6 mm, 3 μm particle size; Advanced Chromatography Technologies, Aberdeen, Scotland) by isocratic elution with 40 parts of 20 mM ammonium formate containing 0.1% (vol/vol) formic acid and 60 parts of acetonitrile at a flow rate of 0.5 ml/min with a run time of 4 min. Samples were acquired in positive ion mode and detected by multiple reaction monitoring (MRM). The concentrations of the analyte were determined from a standard curve obtained by plotting known concentrations of the analyte against peak area ratios (analyte/internal standard peak response).
PK analyses of the plasma concentration-time relationships were performed with Phoenix software (version 6.2; Pharsight, USA). A noncompartmental analysis program, model 200, was used to calculate PK parameters. The maximum concentration of drug in plasma (Cmax), time to Cmax (Tmax), elimination half-life (t1/2), and area under the concentration-time curve (AUC) from time zero to infinity (AUC0–∞) were estimated. AUC was computed using the trapezoidal rule (linear up and log down), and the AUC0–∞ was considered only when the extrapolated AUC was not more than 20% of the original value. A minimum of three sample points in the terminal slope were used to calculate half-life.

Where [4] appears, read: 150 mg/kg, Ref. regimen quartet INH 30/RIF 10/EMB 100/PZA 150 mg/kg oral, read-out: AUC0-24 in Quartet.
Setting [5] is: 150 mg/kg, Ref. regimen quartet INH 30/RIF 10/EMB 100/PZA 150 mg/kg oral, read-out: Cmax in Quartet.

Converted amounts (≈) assume the structure as drawn. Where two headings read alike, the source gives them in different places.

In the case of `CO[C@H]1/C=C/O[C@@]2(C)Oc3c(C)c(O)c4c(O)c(c(/C=N/N5CCN(C)CC5)c(O)c4c3C2=O)NC(=O)/C(C)=C\C=C\[C@H](C)[C@H](O)[C@@H](C)[C@@H](O)[C@@H](C)[C@H](OC(C)=O)[C@@H]1C` [Rifampin], in data set [1], the “ΔLog10 CFU/ml at the MIC” value was found to be 1.24 Log10 CFU/ml. Further, the MIC in data set [2] (Mycobacterium tuberculosis) worked out at 0.009 µM (≈ 0.00741 µg/mL). Further, the AUC(0-t) in data set [3] (100 mg/kg, Ref. regimen triplet INH 30/RIF 10/EMB 100 mg/kg oral, read-out: AUC0-24 in Triplet) stood at 25.4 ± 7.3 µg·h/mL; in data set [3] (setting [4]) it was 22.2 ± 8.6 µg·h/mL. Further, the Cmax in data set [3] (100 mg/kg, Ref. regimen triplet INH 30/RIF 10/EMB 100 mg/kg oral, read-out: Cmax in Triplet) came out at 4900 ± 1300 ng/mL; in data set [3] (setting [5]), 5500 ± 3000 ng/mL.

Turning to `C[C@H]1COC2(CCN(c3nc(=O)c4cc(C(F)(F)F)cc([N+](=O)[O-])c4s3)CC2)O1` [BTZ043], the “ΔLog10 CFU/ml at the MIC” value in data set [1] is recorded as 1.40 Log10 CFU/ml. Besides, in data set [2] (Mycobacterium tuberculosis), the MIC stood at 0.0009 µM (≈ 0.000388 µg/mL). In addition, the AUC(0-t) in data set [3] (25 mg/kg, Group 6 triplet BTZ043 37.5/THI 800/SQ109 25 mg/kg oral, read-out: AUC0-24 in Triplet) was found to be 15 ± 6.2 µg·h/mL; in data set [3] (200 mg/kg, Group 3 triplet BTZ043 37.5/SQ109 25/MXF 200 mg/kg oral, read-out: AUC0-24 in Triplet), 11.1 ± 5 µg·h/mL. For the same molecule, the peak concentration (Cmax) in data set [3] (25 mg/kg, Group 6 triplet BTZ043 37.5/THI 800/SQ109 25 mg/kg oral, read-out: Cmax in Triplet) worked out at 2100 ± 400 ng/mL; in data set [3] (200 mg/kg, Group 3 triplet BTZ043 37.5/SQ109 25/MXF 200 mg/kg oral, read-out: Cmax in Triplet), 2300 ± 900 ng/mL.

Consider `N[C@@H]1CON=C1O` [D-Cycloserine], for which the “ΔLog10 CFU/ml at the MIC” value in data set [1] is 0.87 Log10 CFU/ml. This molecule also returned an MIC in data set [2] (Mycobacterium tuberculosis) of 30.6 µM (≈ 3.12 µg/mL).

In the case of `[H]/N=C(/N)N[C@H]1[C@H](O)[C@@H](O)[C@H](O[C@@H]2O[C@@H](C)[C@](O)(C=O)[C@H]2O[C@@H]2O[C@@H](CO)[C@H](O)[C@@H](O)[C@@H]2NC)[C@@H](N/C(N)=N\[H])[C@@H]1O` [Streptomycin], in data set [1], the “ΔLog10 CFU/ml at the MIC” value was 0.36 Log10 CFU/ml. Moreover, the MIC in data set [2] (Mycobacterium tuberculosis) was 0.68 µM (≈ 0.395 µg/mL).

Regarding `C[C@@H](O)[C@H]1C(=O)N2C(C(=O)O)=C(S[C@@H]3CN[C@H](C(=O)N(C)C)C3)[C@H](C)[C@H]12` [Meropenem], the “ΔLog10 CFU/ml at the MIC” value in data set [1] is 0.57 Log10 CFU/ml. For the same molecule, the MIC in data set [2] (Mycobacterium tuberculosis) worked out at 8.15 µM (≈ 3.13 µg/mL).

Turning to `NCC[C@H](O)C(=O)N[C@@H]1C[C@H](N)[C@@H](O[C@H]2O[C@H](CN)[C@@H](O)[C@H](O)[C@H]2O)[C@H](O)[C@H]1O[C@H]1O[C@H](CO)[C@@H](O)[C@H](N)[C@H]1O` [Amikacin], the “ΔLog10 CFU/ml at the MIC” value in data set [1] is −0.20 Log10 CFU/ml. This molecule also yielded a minimum inhibitory concentration (MIC) in data set [2] (Mycobacterium tuberculosis) of 0.43 µM (≈ 0.252 µg/mL).

With `CC[C@H]1OC(=O)[C@H](C)[C@@H](O[C@H]2C[C@@](C)(OC)[C@@H](O)[C@H](C)O2)[C@H](C)[C@@H](O[C@@H]2O[C@H](C)C[C@H](N(C)C)[C@H]2O)[C@](C)(OC)C[C@@H](C)C(=O)[C@H](C)[C@@H](O)[C@]1(C)O` [Clarithromycin], in data set [1], the “ΔLog10 CFU/ml at the MIC” value came to 0.75 Log10 CFU/ml. Moreover, the MIC in data set [2] (Mycobacterium tuberculosis) came to 9.63 µM (≈ 7.2 µg/mL).

Turning to `NC[C@H]1O[C@H](O[C@H]2[C@H](O)[C@@H](O[C@H]3O[C@H](CO)[C@@H](O)[C@H](N)[C@H]3O)[C@H](N)C[C@@H]2N)[C@H](O)[C@@H](O)[C@@H]1O` [Kanamycin], the “ΔLog10 CFU/ml at the MIC” value in data set [1] is 0.44 Log10 CFU/ml. The molecule further displayed an MIC in data set [2] of 1.61 µM (≈ 0.78 µg/mL).

In the case of `NC(=O)c1cnccn1` [Pyrazinamide], the AUC(0-t) in data set [3] (150 mg/kg, Group 1 quartet CFZ 20/BDQ 25/PA824 50/PZA 150 mg/kg oral, read-out: AUC0-24 in Quartet) came to 115 ± 6.5 µg·h/mL; in data set [3] (150 mg/kg, Group 2 quartet SQ109 25/BDQ 25/PA824 50/PZA 150 mg/kg oral, read-out: AUC0-24 in Quartet), 148 ± 2.1 µg·h/mL; in data set [3] (150 mg/kg, Group 3 quartet BTZ043 37.5/SQ109 25/MXF 200/PZA 150 mg/kg oral, read-out: AUC0-24 in Quartet) it was 156 ± 13.2 µg·h/mL; in data set [3] (150 mg/kg, Group 5 quartet EMB 100/BDQ 25/SQ109 25/PZA 150 mg/kg oral, read-out: AUC0-24 in Quartet) it was 144 ± 29.5 µg·h/mL; in data set [3] (150 mg/kg, Group 6 quartet BTZ043 37.5/THI 800/SQ109 25/PZA 150 mg/kg oral, read-out: AUC0-24 in Quartet), 154 ± 23.8 µg·h/mL; in data set [3] (150 mg/kg, Group 7 quartet PA824 50/BDQ 25/MXF 400/PZA 150 mg/kg oral, read-out: AUC0-24 in Quartet), 144 ± 16.9 µg·h/mL. Also, the AUC(0-t) in data set [3] (150 mg/kg, Group 8 quartet PA824 50/BDQ 25/EMB 100/PZA 150 mg/kg oral, read-out: AUC0-24 in Quartet) came to 127 ± 9 µg·h/mL; in data set [3] (150 mg/kg, Group 9 quartet EMB 100/SQ109 25/LZD 130/PZA 150 mg/kg oral, read-out: AUC0-24 in Quartet), 119 ± 7 µg·h/mL; in data set [3] (setting [4]), 161 ± 18.8 µg·h/mL. Further, the Cmax in data set [3] (150 mg/kg, Group 1 quartet CFZ 20/BDQ 25/PA824 50/PZA 150 mg/kg oral, read-out: Cmax in Quartet) was 64000 ± 9800 ng/mL; in data set [3] (150 mg/kg, Group 2 quartet SQ109 25/BDQ 25/PA824 50/PZA 150 mg/kg oral, read-out: Cmax in Quartet), 64500 ± 3100 ng/mL; in data set [3] (150 mg/kg, Group 3 quartet BTZ043 37.5/SQ109 25/MXF 200/PZA 150 mg/kg oral, read-out: Cmax in Quartet), 42000 ± 700 ng/mL; in data set [3] (150 mg/kg, Group 5 quartet EMB 100/BDQ 25/SQ109 25/PZA 150 mg/kg oral, read-out: Cmax in Quartet), 67200 ± 2500 ng/mL; in data set [3] (150 mg/kg, Group 6 quartet BTZ043 37.5/THI 800/SQ109 25/PZA 150 mg/kg oral, read-out: Cmax in Quartet), 40200 ± 13300 ng/mL; in data set [3] (150 mg/kg, Group 7 quartet PA824 50/BDQ 25/MXF 400/PZA 150 mg/kg oral, read-out: Cmax in Quartet), 33200 ± 2300 ng/mL. Also, the Cmax is 69000 ± 12700 ng/mL in data set [3] (150 mg/kg, Group 8 quartet PA824 50/BDQ 25/EMB 100/PZA 150 mg/kg oral, read-out: Cmax in Quartet); 39500 ± 4400 ng/mL in data set [3] (150 mg/kg, Group 9 quartet EMB 100/SQ109 25/LZD 130/PZA 150 mg/kg oral, read-out: Cmax in Quartet); 69700 ± 9700 ng/mL in data set [3] (setting [5]).

For the molecule Capreomycin, the “ΔLog10 CFU/ml at the MIC” value in data set [1] was −0.11 Log10 CFU/ml. In addition, in data set [2], the MIC came to 5.91 µM.

As a reminder, the MIC is the lowest concentration that inhibits growth of the organism. Read a high MIC as a need for much substance. As usually defined, the Cmax is the maximum level reached in the sampled fluid or tissue.
